Experiments:
Format in all cases: cell-based
CXCR5 [1] = molecular target: T1, CXCR5 (Homo sapiens, UniProt P32302); assay: Chemotaxis assay (Transwell, CXCL13 dose-response, 300.19 cells expressing CXCR5); conditions: 300.19 cells incubated with compound, compared to the vehicle control
T1 sequence (P32302 1-372): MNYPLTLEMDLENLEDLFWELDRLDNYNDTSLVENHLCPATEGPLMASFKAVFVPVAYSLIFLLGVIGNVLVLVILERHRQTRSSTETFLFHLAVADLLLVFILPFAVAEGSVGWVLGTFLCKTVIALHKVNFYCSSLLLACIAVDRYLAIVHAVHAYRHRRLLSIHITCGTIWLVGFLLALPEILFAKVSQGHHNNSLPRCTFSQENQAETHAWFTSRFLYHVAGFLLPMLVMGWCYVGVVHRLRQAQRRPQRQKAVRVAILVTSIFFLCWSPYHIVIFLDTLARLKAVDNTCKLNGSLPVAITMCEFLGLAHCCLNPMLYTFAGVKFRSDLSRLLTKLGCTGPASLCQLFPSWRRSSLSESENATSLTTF
Text: Chemotaxis assays were utilized to determine the effect of compound on the directed migration of cells in response to chemokine. 300.19 cells that express CXCR5 were placed in the upper chamber of a Transwell chemotaxis plate (Corning) and allowed to migrate through a polycarbonate membrane to a lower chamber containing the appropriate receptor-specific ligand. To test for antagonist or potentiating activity, cells were mixed with the desired concentration of compound prior to addition to the upper chamber. Conversely, agonist activity was determined by adding compound in the bottom chamber only without endogenous chemokine. The effect of compound is quantified by several parameters, including the extent of maximum response, the shift of agonist dose-response curves, and the area under the curve. […]
To initiate cell migration, the assembled transwell plate was placed in a 37° C., […] incubator for a specified time interval, typically between 30 and 120 minutes. […] To quantify migrated cells, plates were thawed at 37° C. in a humidified chamber, and then a sample volume was removed from each well and mixed with an equal volume of CyQuant (Invitrogen) working solution in opaque plates. The fluorescence intensity of each well represents the DNA content and is directly proportional to cell number. […]

CXCR5 [2] = molecular target: T1, CXCR5; assay: β-arrestin assay (DiscoverX eXpress β-arrestin cells expressing CXCR5)
Text: The β-arrestin assays developed by DiscoverX employed herein detect binding of a ligand to the GPCR by directly measuring β-arrestin recruitment to the GPCR independent of G-protein coupling. In this system, β-arrestin is fused to an N-terminal deletion mutant of β-gal (termed the enzyme acceptor of EA) and the GPCR of interest is fused to a smaller (42 amino acids), weakly complementing fragment. In cells that stably express these fusion proteins, ligand stimulation results in the interaction of β-arrestin and the tagged GPCR, forcing the complementation of the two β-gal fragments and resulting in the formation of a functional enzyme that converts substrate to detectable signal. In practice, eXpress β-arrestin cells expressing the receptor of interest are incubated with either compound alone (agonist mode), or compound plus native ligand (allosteric mode). A chemiluminescent substrate is then added to determine the extent of enzyme activity, and by inference, arrestin recruitment to GPCR.
The β-arrestin assays for CXCR5 Compound 14 were run in both agonist and allosteric modes. In agonist mode, the CXCR5-expressing eXpress β-arrestin cells were incubated with a dose curve of CXCR5 Compound 14 in the absence of CXCL13. […] In allosteric mode, Compound 14 is co-incubated with CXCL13, and the CXCR5 response of the eXpress cells is quantified.

CXCR5 [3] = molecular target: T1, CXCR5; assay: HTRF cAMP assay, inhibition of forskolin-stimulated cAMP production in HEK293 cells expressing hCXCR5; parameters: expressed in transfected cells; host or cells: HEK293; conditions: HEK293 cells expressing hCXCR5, 2 doses of compound (3 uM, 0.3 uM)
Text: HTRF (homogeneous time resolved fluorescence) is a technology developed by Cisbio Bioassays based on TR-FRET (time-resolved fluorescence resonance energy transfer). Cisbio Bioassays has developed a wide selection of HTRF-based assays compatible with whole cells, thereby enabling functional assays run under more physiological conditions. cAMP kits are based on a competitive immunoassay using cryptate-labeled anti-cAMP antibody and d2-labeled cAMP. This assay allows the measurement of increase in intracellular cAMP upon Gs-coupled receptor activation as well as decrease in forskolin stimulated increase in cAMP upon Gi-coupled receptor activation. The IP-One assays are competitive immunoassays that use cryptate-labeled anti-IP1 monoclonal antibody and d2-labeled IP1. IP1 is a relatively stable downstream metabolite of IP3, and accumulates in cells following Gq receptor activation.
A cAMP assay was performed in the presence of Compound 14 to assess the activation of CXCR5 by the production of cAMP. HEK293 cells expressing hCXCR5 were incubated with CXCL13, and the inhibition of forskolin-stimulated cAMP production was quantified in cells in the absence and presence of Compound 14. […] This response is indicative of a reduction of decrease in forskolin-stimulated cAMP due to enhanced CXCR5 (Gi) activation.

shift of the bell-shaped ligand dose-response curve (chemotaxis) (CXCR5 [1]; CXCL13 dose-response): leftward shift
AUC of the bell-shaped ligand dose-response curve (chemotaxis) (CXCR5 [1]): increase
β-arrestin recruitment response, agonist mode (CXCR5 [2]; dose curve of compound in the absence of CXCL13): lack of response
Substance: Pal-HAVHAYRHRRLLS-amide [Compound 14]
β-arrestin recruitment response curve, allosteric mode (CXCR5 [2]; compound co-incubated with CXCL13): left-shifted and higher maximal response curve
shift of cAMP responses to CXCL13 (inhibition of forskolin-stimulated cAMP production) (CXCR5 [3]): shifted leftward in a dose-dependent manner

Reference: patent US20110300167A1, “CXCR5 RECEPTOR COMPOUNDS” (priority 2008, published 2011)
